Measured values: the supplement of paper PMC4862054
Where “and” joins values, the source holds several entries; their conditions need not be identical. Equal values may be shown once.

Tests used:
Details in all cases: incubation time: 72 h
[1] = system: BT-474; assay: normalised response (% of control), CellTiter-Glo; higher = more viable cells (100 = DMSO, 0 = benzethonium chloride kill control)
Method in brief: (§1)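 The table gives the normalised signal for a single concentration in each entry. Breast cancer cell lines were seeded (20 µl suspension) into 384-well plates holding compound at 5 concentrations in 10-fold steps over a compound-specific 10,000-fold range and incubated 72 h, then read for CellTox Green fluorescence (485/520 nm) and CellTiter-Glo luminescence. Normalisation on each plate used 0.1 % DMSO (100) and a positive kill control (0).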

[2] = system: BT-549; assay: as above
Method in brief: as §1

[3] = system: CAL-120; assay: as above
Method in brief: as §1

[4] = system: CAL-148; assay: as above
Method in brief: as §1

[5] = system: CAL-51; assay: as above
Method in brief: as §1

[6] = system: CAL-85-1; assay: as above
Method in brief: as §1

[7] = system: DU-4475; assay: as above
Method in brief: as §1

[8] = system: HCC1143; assay: as above
Method in brief: as §1

[9] = system: HCC1599; assay: as above
Method in brief: as §1

[10] = system: HCC1937; assay: as above
Method in brief: as §1

[11] = system: HDQ-P1; assay: as above
Method in brief: as §1

[12] = system: Hs578T; assay: as above
Method in brief: as §1

[13] = system: MCF-10A; assay: as above
Method in brief: as §1

[14] = system: MDA-MB-231; assay: as above
Method in brief: as §1

[15] = system: MDA-MB-436; assay: as above
Method in brief: as §1

[16] = system: MDA-MB-453; assay: as above
Method in brief: as §1

[17] = system: MDA-MB-468; assay: as above
Method in brief: as §1

[18] = system: MFM-223; assay: as above
Method in brief: as §1

[19] = system: SK-BR-3; assay: as above
Method in brief: as §1

[20] = system: BT-474; assay: normalised viability (% of control), CellTiter-Blue; higher = more viable cells (100 = DMSO, 0 = benzethonium chloride kill control)
Method in brief: (§2)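 Each value is normalised viability at a single listed concentration of the series. Breast cancer cell lines in 384-well plates were incubated 72 h with compound and read by CellTiter-Blue fluorescence at 560/590 nm, with vehicle set to 100 and a positive kill control to 0 on every plate.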

[21] = system: BT-549; assay: as above
Method in brief: as §2

[22] = system: CAL-120; assay: as above
Method in brief: as §2

[23] = system: CAL-148; assay: as above
Method in brief: as §2

[24] = system: CAL-51; assay: as above
Method in brief: as §2

[25] = system: CAL-85-1; assay: as above
Method in brief: as §2

[26] = system: DU-4475; assay: as above
Method in brief: as §2

[27] = system: HCC1143; assay: as above
Method in brief: as §2

[28] = system: HCC1599; assay: as above
Method in brief: as §2

[29] = system: HCC1937; assay: as above
Method in brief: as §2

[30] = system: HDQ-P1; assay: as above
Method in brief: as §2

[31] = system: Hs578T; assay: as above
Method in brief: as §2

[32] = system: MDA-MB-231; assay: as above
Method in brief: as §2

[33] = system: MDA-MB-436; assay: as above
Method in brief: as §2

[34] = system: MDA-MB-453; assay: as above
Method in brief: as §2

[35] = system: MDA-MB-468; assay: as above
Method in brief: as §2

[36] = system: MFM-223; assay: as above
Method in brief: as §2

[37] = system: SK-BR-3; assay: as above
Method in brief: as §2

SMILES	normalised response [1]	normalised response [2]	normalised response [3]	normalised response [4]	normalised response [5]	normalised response [6]	normalised response [7]	normalised response [8]	normalised response [9]	normalised response [10]	normalised response [11]	normalised response [12]	normalised response [13]	normalised response [14]	normalised response [15]	normalised response [16]	normalised response [17]	normalised response [18]	normalised response [19]	normalised viability [20]	normalised viability [21]	normalised viability [22]	normalised viability [23]	normalised viability [24]	normalised viability [25]	normalised viability [26]	normalised viability [27]	normalised viability [28]	normalised viability [29]	normalised viability [30]	normalised viability [31]	normalised viability [32]	normalised viability [33]	normalised viability [34]	normalised viability [35]	normalised viability [36]	normalised viability [37]
NC1(c2ccc(-c3nc4ccn5c(=O)[nH]nc5c4cc3-c3ccccc3)cc2)CCC1 [MK-2206] (0.1 nM)	101%	99.5%	112%	110%	87.9%	98.7%	101%	102%	87.8%	100%	103%	97.2%	107%	106%	98.3%	98.9%	103%	112%	110%	115%	114%	106%	106%	99.9%	108%	118%	118%	94.9%	129%	113%	107%	106%	108%	105%	111%	100%	107%
CO[C@H](C(=O)[C@@H](O)[C@@H](C)O)[C@@H]1Cc2cc3cc(O[C@H]4C[C@@H](O[C@@H]5C[C@@H](O)[C@H](O)[C@@H](C)O5)[C@H](O)[C@@H](C)O4)c(C)c(O)c3c(O)c2C(=O)[C@H]1O[C@H]1C[C@@H](O[C@@H]2C[C@@H](O)[C@@H](O[C@@H]3C[C@](C)(O)[C@H](O)[C@@H](C)O3)[C@@H](C)O2)[C@H](O)[C@@H](C)O1 [Plicamycin] (1 nM)	104%	102%	113%	112%	92.5%	102%	107%	92.6%	102%	96.9%	101%	102%	103%	99.8%	95%	108%	113%	106%	108%	106% and 92.2%	93% and 90.1%	82.5% and 79.1%	111% and 108%	102% and 112%	87.5% and 82.1%	112% and 109%	96.8% and 82.4%	101% and 107%	97.7% and 85%	111%	113% and 92.7%	94% and 98.7%	108% and 92.6%	95.5% and 109%	96.7% and 101%	91.7% and 84.2%	93.3% and 88.4%
CCN(CC)CCOc1ccc(C(=C(Cl)c2ccccc2)c2ccccc2)cc1 [Clomifene] (1 nM)	106%	101%	95.8%	109%	102%	104%	104%	105%	99.8%	96.9%	99.2%	101%	95.8%	106%	111%	106%	98.8%	99.6%	108%	95.6%	116%	90.2%	105%	94.5%	89%	92.8%	89.7%	79.7%	97.7%	125%	123%	104%	111%	102%	103%	101%	96.7%
CO[C@H]1C[C@@H]2CC[C@@H](C)[C@@](O)(O2)C(=O)C(=O)N2CCCC[C@H]2C(=O)O[C@H]([C@H](C)C[C@@H]2CC[C@@H](O)[C@H](OC)C2)CC(=O)[C@H](C)/C=C(\C)[C@@H](O)[C@@H](OC)C(=O)[C@H](C)C[C@H](C)/C=C/C=C/C=C/1C [Sirolimus] (0.1 nM)	101%	89.9%	94%	101%	96.3%	96.1%	98.9%	102%	108%	103%	100%	102%	108%	96.9%	94.3%	95%	93.8%	100%	91.1%	84.2%	88%	102%	105%	78.8%	93.9%	94.8%	105%	91.9%	85.3%	100%	74.4%	85.2%	103%	99.4%	94.3%	80.3%	90.8%
C[C@@H]1C[C@H]2[C@@H]3CCC4=CC(=O)C=C[C@]4(C)[C@@]3(F)[C@@H](O)C[C@]2(C)[C@@]1(O)C(=O)CO [Dexamethasone] (1 nM)	107%	102%	94.3%	89.2%	116%	102%	100%	96.2%	100%	98.9%	104%	107%	90%	112%	115%	102%	94.6%	94.7%	95.6%	119%	157%	82.3%	109%	95.6%	107%	96.6%	91.8%	84%	82%	92.9%	93.5%	126%	85.8%	94.3%	106%	91.6%	111%
CC[C@@H]1C(=O)N(C)c2cnc(Nc3ccc(C(=O)N[C@H]4CC[C@H](N5CCN(CC6CC6)CC5)CC4)cc3OC)nc2N1C(C)C [Volasertib] (0.1 nM)	97.7%	104%	98.5%	93%	111%	102%	95.2%	90.6%	96.6%	98.9%	93.2%	105%	88.1%	100%	80.4%	108%	97.3%	96.2%	103%	107%	108%	92.4%	110%	116%	88.4%	103%	96.3%	88.5%	101%	94.3%	102%	110%	117%	101%	121%	92%	118%
Nc1nc(Cl)nc2c1ncn2[C@@H]1O[C@H](CO)[C@@H](O)[C@@H]1F [Clofarabine] (1 nM)	101%	94.8%	101%	90.5%	79.9%	97.4%	99%	96.7%	90%	98.1%	98.3%	103%	107%	101%	97.4%	106%	94.9%	101%	99.1%	89.5%	93.7%	90.4%	91%	108%	87%	101%	87.1%	101%	93.7%	118%	116%	90.3%	100%	107%	111%	93%	91%
